Measurements reported in PMC6063332 (Archives of Toxicology, 2018).

Columns and labels:
HDAC10 = target: T1, HDAC10 (Homo sapiens, UniProt Q969S8); test: NanoBRET cellular target engagement assay; format: binding; conditions: HeLa cells
T1 construct: host or cells: HeLa cells, stably transfected
T1 sequence (Q969S8 1-669): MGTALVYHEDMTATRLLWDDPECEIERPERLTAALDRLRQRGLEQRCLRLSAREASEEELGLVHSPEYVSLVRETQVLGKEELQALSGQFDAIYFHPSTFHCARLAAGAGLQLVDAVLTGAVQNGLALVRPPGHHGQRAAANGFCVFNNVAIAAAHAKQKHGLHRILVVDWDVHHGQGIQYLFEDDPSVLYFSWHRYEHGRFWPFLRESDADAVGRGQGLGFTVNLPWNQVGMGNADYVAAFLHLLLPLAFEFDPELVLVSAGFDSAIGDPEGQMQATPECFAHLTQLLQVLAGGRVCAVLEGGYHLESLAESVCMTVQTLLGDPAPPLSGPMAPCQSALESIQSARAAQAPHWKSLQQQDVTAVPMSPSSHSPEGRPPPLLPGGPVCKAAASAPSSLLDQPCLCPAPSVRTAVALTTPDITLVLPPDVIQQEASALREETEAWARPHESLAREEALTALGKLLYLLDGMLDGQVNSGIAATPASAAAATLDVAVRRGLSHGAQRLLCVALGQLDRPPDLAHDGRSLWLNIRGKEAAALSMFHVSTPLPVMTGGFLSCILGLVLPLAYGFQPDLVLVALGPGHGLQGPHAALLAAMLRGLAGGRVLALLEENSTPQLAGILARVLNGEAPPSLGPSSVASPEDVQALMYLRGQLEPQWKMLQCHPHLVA
Protocol: HeLa cells, stably transfected with NanoBRET plasmids NanoLuc®-HDAC6 FL Fusion Vector and NanoLuc®-HDAC10 FL Fusion Vector (Promega, Madison, WI, USA) were seeded at 20,000 cells/well in white 96-well plates. Without further incubation, tracer (0.3 µM) and drugs were added in separate steps and plates were placed in a tissue culture incubator for 2 h. For NanoBRET quantification, plates were put at room temperature for 10 min. Nanoglow substrate, diluted in OptiMEM without phenol red, was added and measured within 10 min in an OPTIMA plate reader (460 nm emission for donor and 610LP filter for acceptor, BMG Labtech, Ortenberg, Germany). The BRET signal was calculated by the ratio of acceptor signal to donor signal.

HDAC3 = target: T2, HDAC3 (Homo sapiens, UniProt O15379); test: Biochemical HDAC3 activity, fluorogenic p53 peptide (Reaction Biology); conditions: fluorogenic p53 peptide RHKK(Ac)AMC
T2 construct: purchased Reaction Biology Corp. (contract testing)
From the text: ^2 Biochemical HDAC3 IC50 value, determined using a fluorogenic p53 peptide, detailed results depicted in Supplementary Figure 1 a.

T2 sequence (O15379 whole entry): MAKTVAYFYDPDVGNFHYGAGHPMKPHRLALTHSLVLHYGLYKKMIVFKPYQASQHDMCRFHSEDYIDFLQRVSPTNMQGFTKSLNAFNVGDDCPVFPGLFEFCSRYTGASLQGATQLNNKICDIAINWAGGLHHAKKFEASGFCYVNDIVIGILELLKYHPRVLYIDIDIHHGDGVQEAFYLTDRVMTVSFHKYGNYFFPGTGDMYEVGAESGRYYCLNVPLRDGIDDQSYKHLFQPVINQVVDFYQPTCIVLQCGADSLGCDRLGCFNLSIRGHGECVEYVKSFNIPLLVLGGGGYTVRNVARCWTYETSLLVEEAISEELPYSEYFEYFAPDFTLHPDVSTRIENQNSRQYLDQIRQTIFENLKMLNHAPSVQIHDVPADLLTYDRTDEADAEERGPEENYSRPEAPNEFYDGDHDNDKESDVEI
T2 sequence (Q9Y618 395-489 partner limits assumed): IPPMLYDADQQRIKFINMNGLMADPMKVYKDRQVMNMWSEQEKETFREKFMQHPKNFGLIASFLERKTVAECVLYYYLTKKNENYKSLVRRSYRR

IC50 (HDAC10): 7.7 µM
IC50 (HDAC3): 78.3 ± 0.9 µM
SMILES: Cc1ccc(C(=O)NO)cc1NCc1ccccc1 [TH34, 3-(N-benzylamino)-4-methylbenzhydroxamic acid]
